Entries after “also recorded” stand apart in the source; their conditions may differ.
Columns and labels:
[1] = tested on: primary human hepatocytes; test: Hepatocyte spheroid assay (liver metabolite study); assay type: in vitro ADME
Description: Cryopreserved primary human hepatocytes were acquired from ThermoFisher. To each well of a 96 well ultra-low attachment U-bottom plate, 2,000 cells were plated in 200 μL William's E Medium (no phenol red, 20% FBS, 1% penicillin-streptomycin, 1% insulin-transferrin-selenium solution, […], 1% L-glutamine). The plate was centrifuged at 300 rpm for 2 minutes and then incubated without disturbance. After 5 days, 100 μL of spent media was removed and replaced with fresh media. […] The supernatant was then removed and analyzed on an Agilent 1260 Infinity II LC system equipped with an Eckert & Ziegler FlowCountPRO detector.
Specifically, 2,000 cells were plated in 200 μL William's E Medium (no phenol red, 20% FBS, 1% penicillin-streptomycin, 1% insulin-transferrin-selenium solution, […], 1% L-glutamine). […] The supernatant was then removed and analyzed on an Agilent 1260 Infinity II LC system equipped with an Eckert & Ziegler FlowCountPRO detector.
Specifically, cryopreserved hepatocytes were thawed and diluted 1:10 in a 15 mL conical tube with warm culture media (William's E Medium, no phenol red, 20% FBS, 1% penicillin-streptomycin, 1% insulin-transferrin-selenium solution, […], 1% L-glutamine). […] Cells were counted and diluted to a concentration of 10,000 live cells/mL. […] The supernatant was transferred into an autosampler vial and analyzed by HPLC.

HCT116-eDHFR tumors = test: Ex vivo biodistribution in HCT116 tumor-bearing athymic nude mice; design: species or system human; details: 1.85 MBq i.v., 3 hours
Description: (§1) To evaluate the therapeutic potential [^131I]mI-TMP, sixteen (16) 8- to 12-week-old female athymic nude mice (Charles River Laboratories) were inoculated with 1×10^7 HCT116 tumor cells (eDHFR+ or WT) on the left shoulder. The mice were then divided into two groups: […] (8) mice with HCT116-eDHFR (eDHFR-positive cells) and Eight (8) mice with HCT116-WT (eDHFR-negative) cells.
Ex-vivo biodistribution studies were conducted on three (3) tumor-bearing mice from each group, while the remaining ten (10) mice were used to monitor tumor response to radiotherapy.
Three (3) hours post radiotracer injection mice were euthanized, and organs of interest were harvested for biodistribution quantification. Total radioactive uptake per organ, in counts per minute (CPM), was determined by γ-counter (Perkin Elmer).

HCT116 tumor cells = test: Radiotherapy of HCT116 tumor-bearing athymic nude mice; assay type: in vivo, human
Description: Tumor size measurements were taken using calipers from day 1 to 14 post-injection of the [^131I]mI-TMP to monitor the response of radiation therapy. […] See, FIG. 11 and FIG. 12.
as §1
Three (3) of the five (5) mice from each cohort were imaged at 3- and 24-hours post [^131I]mI-TMPI radiotherapy injection using small animal SPECT and CT instruments. Five (5) mice from each cohort (which included the 3 imaged mice from each cohort) were then monitored for 14 days using caliper measurements and IVIS imaging.

I45 eDHFR-FLAG tumors = test: I45 RLT, tumor growth in CD1 nude mice; assay type: in vivo, human; details: 18.5 MBq/mouse i.v. single dose, n=7; listed as [^131I]I-TMP
Description: RLT in I45 tumors. […] Briefly, I45 eDHFR-FLAG and WT cells were xenografted into the shoulders of female athymic CD1-Foxn1nu mice. The tumors were allowed to grow for ~2 weeks. Subsequently, [^131I]I-TMP was administered intravenously and a limited biodistribution study was performed. […] To assess for cytotoxicity in I45 mesothelioma cells, I45 WT and I45 eDHFR tumors were separately xenografted into CD1-Foxn1nu mice and either [^131I]I-TMP or saline was administered to form 4 experimental cohorts (n=7).
[^131I]I-TMPI Administration, and Monitoring. Female CD1 nu/nu mice, aged six to eight weeks, underwent subcutaneous xenografting with 1×10^6 I45 WT and I45 eDHFR-Flag cells on the shoulder. The cells were suspended in a 1:1 volume ratio of 75 μL RPMI complete medium and 75 μL Matrigel Matrix (Corning, 354234). Both I45 WT and I45 eDHFR-Flag mice were randomly divided into two groups, with each group consisting of 7 mice. Tumors were grown for 2 weeks. […] [^131I]I-TMP, diluted in 100 μL saline, was injected into two groups containing I45 WT and I45 eDHFR-Flag xenografts on day 9 of initial tumor inoculation. The remaining two groups of I45 WT and I45 eDHFR-Flag xenografts were injected with saline. Tumor growth was monitored from two days before to 10 days after [^131I]I-TMP injection, with measurements taken every other day using calipers. […]

**Q.** Which “de-iodination in hepatocyte culture” value ([1]; after 24 hours) does the source give for `COc1cc(Cc2cnc(N)nc2N)cc(I)c1OC` [[^131I]mI-TMP, 5-(3-iodo-4,5-dimethoxybenzyl)pyrimidine-2,4-diamine] here?
**A.** The value was “minor de-iodination”.

**Q.** What about the “de-iodination with CYP450 inhibitor” value ([1]; with 1-aminobenzotriazole (100 μM)) of the same compound?
**A.** The value was “could be inhibited”.

**Q.** For `COc1cc(Cc2cnc(N)nc2N)cc([131I])c1OC` [[^131I]mI-TMP, 5-(3-iodo-4,5-dimethoxybenzyl)pyrimidine-2,4-diamine], which “uptake in eDHFR tumors relative to WT tumors” value (HCT116-eDHFR tumors) is on record?
**A.** The value was “twice as much”.

**Q.** And the “tumor size, eDHFR-Luc tumors” value (HCT116 tumor cells; 18.5 MBq (500 μCi) i.v. tail vein, caliper, day 1 to 14)?
**A.** The value was “reduction in tumor size at day 7 post-injection, which remained stable until day 10 but increased by day 14”.

**Q.** And the “tumor size, eDHFR-negative tumors” value (HCT116 tumor cells; 18.5 MBq (500 μCi) i.v., day 7 to day 14)?
**A.** Its value is “continued to grow from day 7 to day 14”.

**Q.** And the “tumor growth / in vivo cytotoxicity, I45 eDHFR tumors” value (I45 eDHFR-FLAG tumors)?
**A.** The value was “clear reduction in tumor growth; also recorded: shows in vivo cytotoxicity toward eDHFR-expressing I45 cells”.
